Measurements as given in patent US4315032A, “Process for preparation of adjacently disubstituted ketones” (Teitin Limited, priority 1979, dated 1982).
Like-named read-outs stand apart in the source and are kept apart here.

Key:
[1] = test system: ulcer formation induced by indomethacin; experiment: inhibiting action on the formation of ulcer in rats induced by indomethacin; format: in vivo, Male rats (Sprague Dawley species); conditions: indomethacin 20 mg/kg peroral, compound 0.5 × 2 mg/kg, S.C.; for Inhibiting rate (%): inhibition of ulcer formation
Experimental: By the method of Y. H. Lee et al. [Arch. Int. Pharmacodyn. Ther., 192, 370 (1971)], the inhibiting action of the compound No. 122 in Example 11 and compound No. 158 in Example 21 on the formation of ulcer in rats induced by indomethacin, a typical non-steroid anti-inflammatory agent, was evaluated.
Male rats (Sprague Dawley species; body weight 240-270 g) were used in the experiment. These rats had been caused to fast for 24 hours in separate cages before the initiation of the experiment. Indomethacin was orally administered to these rats, and 6 hours later, they were killed. Formation of ulcer in the fundus part was examined by measuring the area of the ulcer-forming part under a microscope. The compounds Nos. 122 and 158 were each subcutaneously administered at the end of 30 minutes and 2 hours, respectively, after the administration of indomethacin. The ulcer formation inhibiting rate of these compounds against a predetermined dose of indomethacin was determined.
The indomethacin was administered as a 0.5 ml aqueous suspension (containing two drops of a Tween-type nonionic surfactant per 14 ml of water). The compounds Nos. 122 and 158 were given in the form of a solution in a phosphate buffer (pH 7.4).

[2] = test system: platelet aggregation (rabbit PRP); experiment: Activity of Inhibiting Platelet Aggregation In Vitro (rabbit PRP, ADP); format: cell-based; conditions: ADP-disodium salt 5 μM final, 37° C., 2 min pre-incubation, minimum concentration whose inhibiting rate exceeded 50%
Experimental: The platelet aggregation inhibiting activities of test compounds including 7-hydroxy PGE1 of this invention were tested using rabbit PRP. The results are shown in terms of their concentrations at 50% inhibition (IC50) of platelet aggregation. As an aggregating agent, ADP-disodiumsalt having a final concentration of 5 μM was used.
(1) Preparation of platelet-enriched plasma (PRP)
Citrated blood (consisting of 1 part by volume of […] sodium citrate and 9 parts by volume of the blood) was prepared by taking blood from the ear veins of male rabbits having a body weight of 2.0 to 3.0 kg (white ordinary species). The citrated blood was centrifuged at 100 G for 10 minutes at room temperature, and the supernatant (PRP) was separated.
The PRP obtained was stored at room temperature, and used as early as possible. PRP stored for more than 4 hours after preparation was not used.
(2) Preparation of test drugs
Each test drug was dissolved in ethyl alcohol to a concentration of 10 mg/ml or 1 mg/ml, and diluted with physiological saline to adjust its concentration.
(3) Preparation of the aggregating agent
ADP disodium salt (a product of Kyowa Hakko Kabushiki Kaisha) was dissolved in 0.1 M tris-HCl buffer (pH 7.8) to prepare a solution having a concentration of 50 μM (final concentration 5 μM).
(1) Degree of platelet aggregation in a blank
Physiological saline (25 μl) and 25 μl of the aggregating agent solution were added to 200 μl of PRP which had been warmed in a cuvette at 37° C. of an aggregometer to aggregate platelet. The aggregation curve was recorded for 3 minutes by an aggregometer (a product of Rika Denki Kabushiki Kaisha). The maximum degree of aggregation in this platelet aggregation was defined as the maximum degree of aggregation of the blank.
(2) Test for inhibition of platelet aggregation
The solution of test drug (25 μl) was added to 200 of PRP, and the mixture was pre-incubated for 2 minutes in a cuvette of an aggregometer. Then, 25 μl of the ADP disodium solution (50 μM) was added, and the aggregation curve was recorded for 3 minutes. The maximum degree of platelet aggregation within this period was measured, and the inhibiting rate was calculated from the following equation. The mimimum concentration (expressed as final concentration) of the drug whose inhibiting rate exceeded 50% was shown as an IC50 value. [formula]
For details of the in vitro platelet aggregation inhibiting test, see H. M. Davis, J. Phyllis, K. Paul and W. Terry: Thromb. Res. 11, 217-226 (1977) and R. E. Anderson and J. G. Foulks: Thromb. Haemos. 36, 343-359 (1976).

For `CCCCCC(O)/C=C/C1C(O)CC(=O)C1C(O)CCCCCC(=O)OC` (stereo not drawn) [No. 122, 2-(1-hydroxy-7-keto-8-oxanonyl)-3-(3-hydroxy-1-trans-octenyl)-4-hydroxycyclopentanone], the “Ulcer formation (ulcer coefficient) Average value ± S.E.M.” value [1] was 12.1 ± 4.1 and the “Inhibiting rate (%)” value [1] was 40.4%.

For `CCCCCC(O)/C=C/C1C(O)CC(=O)C1C(O)CCCCCC(=O)OC` (stereo not drawn) [No. 144, dl 2-(1-hydroxy-7-keto-8-oxanonyl)-3-(3-hydroxy-1-trans-octenyl)-4-hydroxycyclopentanone], the IC50 [2] was > 10 µg/mL.

Molecule `CCCCCC(O)/C=C/C1C(O)CC(=O)C1C(O)CCCCCC(=O)OC` (stereo not drawn) [No. 146, dl 2-(1-hydroxy-7-keto-8-oxanonyl)-3-(3-hydroxy-1-trans-octenyl)-4-hydroxycyclopentanone] has an IC50 [2] of 24.5 µg/mL.

`CCCCCC(O)/C=C/C1C(O)CC(=O)C1C(O)CCCCCC(=O)OC` (stereo not drawn) [No. 148, dl 2-(1-hydroxy-7-keto-8-oxanonyl)-3-(3-hydroxy-1-trans-octenyl)-4-hydroxycyclopentanone] was tested, and the IC50 [2] was > 10 µg/mL.

In the case of `CCCCCC(O)/C=C/C1C(O)CC(=O)C1C(O)CCCCCC(=O)OC` (stereo not drawn) [No. 150, dl 2-(1-hydroxy-7-keto-8-oxanonyl)-3-(3-hydroxy-1-trans-octenyl)-4-hydroxycyclopentanone], the IC50 [2] is reported as > 10 µg/mL.

`CCCCC[C@H](O)/C=C/C1C(C(O)CCCCCC(=O)OC)C(=O)C[C@H]1O` (stereo partly drawn) [No. 156, 2-(1-hydroxy-7-keto-8-oxanonyl)-3-[3(S)-hydroxy-1-trans-octenyl]-4(R)-hydroxycyclopentanone] gave an IC50 ([2]; Oryctolagus cuniculus, Platelet, read-out: IC50) of 26.3 µg/mL.

With `CCCCC[C@H](O)/C=C/C1C(C(O)CCCCCC(=O)OC)C(=O)C[C@H]1O` (stereo partly drawn) [No. 158, 2-(1-hydroxy-7-keto-8-oxanonyl)-3-[3(S)-hydroxy-1-trans-octenyl]-4(R)-hydroxycyclopentanone] the “Ulcer formation (ulcer coefficient) Average value ± S.E.M.” value [1] was 15.8 ± 5.1, the “Inhibiting rate (%)” value [1] was 22.2% and the IC50 [2] was 41.5 µg/mL.
